# ChEMBL document CHEMBL1128987, “Benzenesulfonamide-peptide conjugates as probes for secondary binding sites near the active site of carbonic anhydrase” (Bioorg Med Chem Lett, 1996)
# Molecular target: Carbonic anhydrase 2 (Homo sapiens, UniProt P00918)
# Experiment: Dissociation constant against human carbonic anhydrase II at 37 degree Centigrade
row,SMILES,Kd [nM]
1,CCC(C)C(NC(=O)CNC(=O)c1ccc(S(N)(=O)=O)cc1)C(=O)O (stereo unspecified),160
2,NS(=O)(=O)c1ccc(C(=O)NCC(=O)NCC(=O)N[C@@H](CO)C(=O)O)cc1,290
3,NS(=O)(=O)c1ccc(C(=O)NCC(=O)NC(Cc2ccccc2)C(=O)O)cc1 (stereo unspecified),140
4,NC(=O)CCC(NC(=O)c1ccc(S(N)(=O)=O)cc1)C(=O)O (stereo unspecified),140
5,NC(=O)C[C@H](NC(=O)CNC(=O)CNC(=O)CNC(=O)c1ccc(S(N)(=O)=O)cc1)C(=O)O,290
6,NS(=O)(=O)c1ccc(C(=O)NC(Cc2ccc(F)cc2)C(=O)O)cc1 (stereo unspecified),17
7,NS(=O)(=O)c1ccc(C(=O)N2CCCC2C(=O)O)cc1 (stereo unspecified),230
8,Nc1ccc(CC(NC(=O)c2ccc(S(N)(=O)=O)cc2)C(=O)O)cc1 (stereo unspecified),64
9,CC[C@H](C)[C@H](NC(=O)CNC(=O)CNC(=O)CNC(=O)c1ccc(S(N)(=O)=O)cc1)C(=O)O,230
10,NS(=O)(=O)c1ccc(C(=O)NC(CO)C(=O)O)cc1 (stereo unspecified),240
11,NS(=O)(=O)c1ccc(C(=O)NCC(=O)NCC(=O)N[C@@H](Cc2ccccc2)C(=O)O)cc1,140
12,NS(=O)(=O)c1ccc(C(=O)NCC(=O)NCC(=O)N[C@@H](CC(=O)O)C(=O)O)cc1,400
13,NS(=O)(=O)c1ccc(C(=O)NCC(=O)NC(Cc2ccc(F)cc2)C(=O)O)cc1 (stereo unspecified),130
14,NS(=O)(=O)c1ccc(C(=O)NCC(=O)NCC(=O)NCC(=O)N[C@@H](CC(=O)O)C(=O)O)cc1,300
15,CC[C@H](C)[C@H](NC(=O)CNC(=O)CNC(=O)c1ccc(S(N)(=O)=O)cc1)C(=O)O,230
16,CSCC[C@@H](NC(=O)CNC(=O)CNC(=O)c1ccc(S(N)(=O)=O)cc1)C(=O)O,160
17,NC(=O)C[C@H](NC(=O)CNC(=O)CNC(=O)c1ccc(S(N)(=O)=O)cc1)C(=O)O,270
18,CC(NC(=O)c1ccc(S(N)(=O)=O)cc1)C(=O)O (stereo unspecified),120
19,NS(=O)(=O)c1ccc(C(=O)NCC(=O)NCC(=O)N[C@@H](Cc2ccc([N+](=O)[O-])cc2)C(=O)O)cc1,130
20,NC(=O)CCC(NC(=O)CNC(=O)c1ccc(S(N)(=O)=O)cc1)C(=O)O (stereo unspecified),240
21,CC(C)(C)C(NC(=O)CNC(=O)c1ccc(S(N)(=O)=O)cc1)C(=O)O (stereo unspecified),150
22,CCCC[C@H](NC(=O)CNC(=O)CNC(=O)c1ccc(S(N)(=O)=O)cc1)C(=O)O,140
23,COc1ccc(CC(NC(=O)c2ccc(S(N)(=O)=O)cc2)C(=O)O)cc1 (stereo unspecified),27

row,SMILES,Kd [nM]
1,NS(=O)(=O)c1ccc(C(=O)NC(Cc2ccccc2)C(=O)O)cc1 (stereo unspecified),13
2,NS(=O)(=O)c1ccc(C(=O)NCC(=O)NCC(=O)NCC(=O)N[C@@H](Cc2ccccc2)C(=O)O)cc1,200
3,NS(=O)(=O)c1ccc(C(=O)NCC(=O)NCC(=O)NCC(=O)N[C@@H](CO)C(=O)O)cc1,360
4,CC(C)(C)C(NC(=O)c1ccc(S(N)(=O)=O)cc1)C(=O)O (stereo unspecified),9
5,NS(=O)(=O)c1ccc(C(=O)NCC(=O)NCC(=O)O)cc1,290
6,C[C@H](NC(=O)CNC(=O)CNC(=O)c1ccc(S(N)(=O)=O)cc1)C(=O)O,250
7,CCC(C)C(NC(=O)c1ccc(S(N)(=O)=O)cc1)C(=O)O (stereo unspecified),9
8,NS(=O)(=O)c1ccc(C(=O)NCC(=O)NCC(=O)N[C@@H](Cc2ccc(F)cc2)C(=O)O)cc1,120
9,C[C@@H](O)[C@H](NC(=O)CNC(=O)CNC(=O)c1ccc(S(N)(=O)=O)cc1)C(=O)O,330
10,NS(=O)(=O)c1ccc(C(=O)NCC(=O)NCC(=O)NC(Cc2ccc3ccccc3c2)C(=O)O)cc1 (stereo unspecified),160
11,CC(C)[C@H](NC(=O)CNC(=O)CNC(=O)CNC(=O)c1ccc(S(N)(=O)=O)cc1)C(=O)O,290
12,CC(C)C(NC(=O)c1ccc(S(N)(=O)=O)cc1)C(=O)O (stereo unspecified),15
13,N=C(N)NCCC[C@H](NC(=O)CNC(=O)CNC(=O)CNC(=O)c1ccc(S(N)(=O)=O)cc1)C(=O)O,290
14,NS(=O)(=O)c1ccc(C(=O)NC(Cc2ccc3ccccc3c2)C(=O)O)cc1 (stereo unspecified),17
15,CC(C)CC(NC(=O)CNC(=O)c1ccc(S(N)(=O)=O)cc1)C(=O)O (stereo unspecified),130
16,Nc1ccc(CC(NC(=O)CNC(=O)c2ccc(S(N)(=O)=O)cc2)C(=O)O)cc1 (stereo unspecified),330
17,CC(C)CC(NC(=O)c1ccc(S(N)(=O)=O)cc1)C(=O)O (stereo unspecified),9
18,NS(=O)(=O)c1ccc(C(=O)NCC(=O)NCC(=O)NCC(=O)N[C@@H](Cc2ccc3ccccc3c2)C(=O)O)cc1,160
19,CC(C)[C@H](NC(=O)CNC(=O)CNC(=O)c1ccc(S(N)(=O)=O)cc1)C(=O)O,260
20,NS(=O)(=O)c1ccc(C(=O)NCC(=O)NCC(=O)N[C@@H](Cc2ccc(Cl)cc2)C(=O)O)cc1,94
21,CC(C)C[C@H](NC(=O)CNC(=O)CNC(=O)CNC(=O)c1ccc(S(N)(=O)=O)cc1)C(=O)O,210
22,NS(=O)(=O)c1ccc(C(=O)NCC(=O)NCC(=O)N[C@@H](CCC(=O)O)C(=O)O)cc1,372
23,CSCCC(NC(=O)CNC(=O)c1ccc(S(N)(=O)=O)cc1)C(=O)O (stereo unspecified),160
